Several values for one entry are separate records, joined by “and”; a condition that tells them apart may be missing. Identical values can stand only once. Peptide text beside a SMILES is read from it.
Columns and labels:
FTH1 = FTH1 mRNA levels in mouse bone marrow-derived macrophages (qPCR); type: cell-based; conditions: murine macrophages; for FTH1 Levels, Fe-Normal / FTH1 Levels, DFO (−Fe) / FTH1 Levels, Fe-NTA (+Fe): SPH 160 μM or oligopeptide 10 μM; for FTH1 Levels, Fe-Normal: normal iron, normalized to Hprt1, relative to control samples; for FTH1 Levels, DFO (−Fe): with DFO 100 μM 16 h; for FTH1 Levels, DFO (−Fe) / FTH1 Levels, Fe-NTA (+Fe): relative to control samples; for FTH1 Levels, Fe-NTA (+Fe): with Fe-NTA 8 h; for FTH1 mRNA expression: normal and iron-depleted conditions
Procedure: Cell Cultures. MBMMs (C57BL/6 genetic background) were obtained from CellBiologics.net and prepared under the conditions recommended by the supplier. Isolated MBMMs were seeded onto 10 cm diameter Petri dishes and grown in RPMI-GlutaMAX™ medium (Invitrogen) supplemented with 10% heat-inactivated FCS (Gibco), 10% L-cell-conditioned medium (source of colony-stimulating factor 1), 2 mM L-glutamine, 50 U/mL penicillin, and […] streptomycin. At 4 days after seeding, the adherent MBMMs were rinsed twice with Hanks balance salt solution (HBSS), and the medium was renewed for 7 days, at which point the MBMMs had completely differentiated into macrophages that were ready for downstream experimental applications.
Cell Treatments. SPH (average molecular weight of about 1100 Daltons) and oligopeptides were dissolved in sterile water to obtain […] stock solutions. The SPH and oligopeptides were further diluted in cell culture media to reach final concentrations of 160 μM SPH and 10 μM oligopeptide per Petri dish.
Murine macrophages were incubated with SPH or an oligopeptide in the presence or absence of an iron-nitrilotriacetate solution (Fe-NTA; FeCl3 (100 μM)-NTA (400 μM)) for 8 h at 37° C. to increase cellular iron concentration. Murine macrophages were also incubated with SPH or an oligopeptide in the presence or absence of desferrioxamine mesylate (DFO; 100 μM) for 16 h at 37° C. to decrease cellular iron concentration. Commercial collagen peptide (Vital Protein) at a 10 μM concentration and sterile water were used as negative controls.
Measurement of Gene Expression. Total RNA was extracted from macrophages using the Qiagen miRNeasy Mini Kit for purification of total RNA from animal and human cells and tissues according to the manufacturer's instructions. About 2 μg of total RNA was transcribed into cDNA, after RT2 RNA QC PCR Array was run to confirm the quality of the RNA samples followed by gene expression analysis using RT2 Profiler PCR array.
(§1) The primers used for amplification of cDNA were: […]
All reactions were performed in a total reaction volume of 20 μl with iQ™ SYBR® Green Supermix (Bio-Rad) and carried out in the iQ™5 instrument (Bio-Rad). Baseline thresholds were calculated by Bio-Rad iQ5 program, and the threshold cycles (Ct) were used, wherein Ct values for the Fth1 gene were normalized to expression levels of Hprt1 (housekeeping) gene. Results are shown in Table 8-2 as n-fold difference relative to the control samples.

[1] = system: Immortalized human astrocytes (P10251-IM); test: Protection of human astrocytes from hemin-induced injury (LDH release assay); type: cell-based; conditions: for % LDH Release (individual runs) / % LDH Release, Average: 24 hr pre-treatment: SPH 160 μM, oligopeptide 10 μM, collagen control 160 μM, then 30 μM hemin 6 hrs, scaled to 0.1% Triton X-100 lysis; for mortality of astrocytes after hemin: oligopeptide 10 μM pre-treatment, hemin-induced oxidative damage
Procedure: (§2) Immortalized human astrocytes (P10251-IM) were obtained from Innoprot, Spain and prepared under conditions recommended by the supplier. At 90% confluency, the P10251-IM cells were rinsed with 8 ml of DPBS and 2 ml of the T/E Solution (prepared as per Innoprot procedure), then added into an […] and gently rocked so that the P10251-IM cells would be completely covered. The flask was subsequently incubated at 37° C. for 2 minutes. Then 5 ml of fetal bovine serum (FBS) and the T/E solution from the flask were added into a 50 ml conical centrifuge tube. The flask was incubated for an additional 2 minutes, and the P10251-IM cells dislodged from the surface by gentle tapping. The P10251-IM cells were then transferred to the 50 ml conical centrifuge tube with 5 ml of TNS solution. The tube was centrifuged at 1000 rpm for 5 minutes. Then the P10251-IM cells were resuspended in the culture medium, counted, and plated in a poly-L-lysine-coated culture plate at 1×10^4 cell density. Cells were tested after they were incubated for 21 days in vitro.
(§3) Confluent P10251-IM cell cultures were washed and then pre-treated with medium alone, or medium supplemented with SPH (160 μM) or an oligopeptide (10 μM) for 24 hr at 37° C. Commercial collagen peptide (Vital Protein) at 160 μM concentration and sterile water were used as negative controls. The P10251-IM cells were subsequently treated with 30 μM hemin in serum-free medium consisting of MEM with 10 mM glucose (MEM10) for 6 hrs.
P10251-IM astrocyte cultures that were […] with 30 μM hemin sustained widespread cell injury. Cell viability was quantified using the lactate dehydrogenase (LDH) release assay as previously described (Chen and Regan, Curr Neurovasc Res, 2:189-196, 2005). Briefly, quantification of the protective effects of SPH and oligopeptides were assessed by determining the mean percentage LDH released, scaled to the complete lysis control culture which was treated with 0.1% Triton X-100 (considered to release 100% of culture LDH).

H-Ferritin = H-Ferritin gene expression in hemin-treated astrocytes by qRT-PCR; type: cell-based, human; conditions: oligopeptide 10 μM; for H-Ferritin Fold Change, Average / H-Ferritin Fold Change (individual runs): SPH 160 μM, collagen control 160 μM, after 6 hr hemin; for H-Ferritin Fold Change (individual runs): GAPDH housekeeping, normalized to control wells
Procedure: as §2, §3
L-Ferritin and H-Ferritin gene expression were then quantified. Briefly, after 6 hr incubation with hemin, the astrocytes were lysed, and RNA was extracted using the Qiagen lipid mini kit. The expression of both genes (L-ferritin and H-ferritin) involved in iron homeostasis was assessed by qRT-PCR. Fold changes were calculated using the ΔCt method, using GAPDH as the housekeeping gene. Fold changes were normalized to expression levels in control wells. Experiments were run in triplicate.
as §1

**Q.** For `CSCC[C@H](NC(=O)[C@@H]1CCCN1C(=O)[C@H](CCCCN)NC(=O)[C@H](CC(=O)O)NC(=O)[C@H](CO)NC(=O)[C@H](CCC(=O)O)NC(=O)[C@H](CCC(=O)O)NC(=O)[C@@H](N)CCCNC(=N)N)C(=O)N[C@@H](Cc1ccc(O)cc1)C(=O)O` [FT-006, REESDKPMY] (H-REESDKPMY-OH), which “FTH1 Levels, Fe-Normal” value (FTH1) is on record?
**A.** 2.7 n-fold

**Q.** What about the “FTH1 Levels, DFO (−Fe)” value (FTH1) of the same molecule?
**A.** 3.3 n-fold

**Q.** And the “FTH1 Levels, Fe-NTA (+Fe)” value (FTH1)?
**A.** 2.8 n-fold

**Q.** And the “FTH1 mRNA expression” value (FTH1)?
**A.** substantial increases

**Q.** What about the “% LDH Release (individual runs)” value [1] of the same molecule?
**A.** 40% and 39% and 42%

**Q.** And the “% LDH Release, Average” value [1]?
**A.** 40%

**Q.** And the “mortality of astrocytes after hemin” value [1]?
**A.** 40%

**Q.** What about the “H-Ferritin Fold Change, Average” value (H-Ferritin) of the same molecule?
**A.** 3.0 fold

**Q.** And the “H-Ferritin Fold Change (individual runs)” value (H-Ferritin)?
**A.** 2.9 fold (2×) and 3.1 fold

**Q.** And the “increases in H-Ferritin gene expression” value (H-Ferritin)?
**A.** 3.0 fold

**Q.** `N=C(N)NCCC[C@H](NC(=O)[C@@H]1CCCN1)C(=O)N[C@@H](CCC(=O)O)C(=O)N[C@@H](CCC(=O)O)C(=O)N[C@@H](CO)C(=O)N[C@@H](CC(=O)O)C(=O)N[C@@H](CCCCN)C(=O)N1CCC[C@H]1C(=O)O` [FT-007, PREESDKP] (H-PREESDKP-OH) was tested. Which “FTH1 Levels, Fe-Normal” value (FTH1) did it give?
**A.** 1.9 n-fold

**Q.** And the “FTH1 Levels, DFO (−Fe)” value (FTH1)?
**A.** 3.1 n-fold

**Q.** What about the “FTH1 Levels, Fe-NTA (+Fe)” value (FTH1) of the same molecule?
**A.** 2.9 n-fold

**Q.** What about the “FTH1 mRNA expression” value (FTH1) of the same molecule?
**A.** substantial increases

**Q.** And the “% LDH Release (individual runs)” value [1]?
**A.** 35% and 38% and 34%

**Q.** And the “% LDH Release, Average” value [1]?
**A.** 36%

**Q.** What about the “mortality of astrocytes after hemin” value [1] of the same molecule?
**A.** 36%

**Q.** And the “H-Ferritin Fold Change, Average” value (H-Ferritin)?
**A.** 3.3 fold

**Q.** What about the “H-Ferritin Fold Change (individual runs)” value (H-Ferritin) of the same molecule?
**A.** 3.5 fold and 3.2 fold and 3.3 fold

**Q.** And the “increases in H-Ferritin gene expression” value (H-Ferritin)?
**A.** 3.3 fold

**Q.** Which “FTH1 Levels, Fe-Normal” value (FTH1) does the source give for `CC(C)C[C@H](NC(=O)[C@H](CCC(=O)O)NC(=O)CNC(=O)[C@H](CO)NC(=O)[C@H](CCC(=O)O)NC(=O)[C@H](CCC(=O)O)NC(=O)[C@@H](N)CCCNC(=N)N)C(=O)O` [FT-008, REESGEL] (H-REESGEL-OH) here?
**A.** 2.5 n-fold

**Q.** What about the “FTH1 Levels, DFO (−Fe)” value (FTH1) of the same molecule?
**A.** 3.4 n-fold

**Q.** What about the “FTH1 Levels, Fe-NTA (+Fe)” value (FTH1) of the same molecule?
**A.** 2.7 n-fold

**Q.** And the “FTH1 mRNA expression” value (FTH1)?
**A.** substantial increases

**Q.** What about the “% LDH Release (individual runs)” value [1] of the same molecule?
**A.** 29% and 27% and 31%

**Q.** What about the “% LDH Release, Average” value [1] of the same molecule?
**A.** 29%

**Q.** And the “mortality of astrocytes after hemin” value [1]?
**A.** 29%

**Q.** What about the “H-Ferritin Fold Change, Average” value (H-Ferritin) of the same molecule?
**A.** 4.2 fold

**Q.** What about the “H-Ferritin Fold Change (individual runs)” value (H-Ferritin) of the same molecule?
**A.** 4.1 fold (2×) and 4.4 fold

**Q.** And the “increases in H-Ferritin gene expression” value (H-Ferritin)?
**A.** 4.0 fold

— patent publication US20250101061A1, “UPREGULATION OF FERRITIN HEAVY CHAIN 1 EXPRESSION” (HBC Immunology Inc., priority 2022, published 2025)
